Earlier results as cited in patent US9842198B2, “Screening method and systems utilizing mass spectral fragmentation patterns” (McMaster University, priority 2012, dated 2017).
*1 amine or outer side, *2 acyl side, *3 side chain or, on linkers, in order; H or OH if unused. Where a SMILES comes first, the peptide text is derived from it. Bridges are numbered along the chain shown (N, C = ends). [ ]: non-standard residue; d: D form. The star is where a group is joined. Cinnamoyl(2-(1Z-pentenyl)) = CCC/C=C\c1ccccc1/C=C/C(=O)*; X1 = CN(/C(=C/c1ccc(O)cc1)C(=O)[*:2])[*:1]; aThr = C[C@H](O)[C@H](N)C(=O)O

Tested on: G-protein coupled receptor NK-1
Settings: natural ligands are tachykinin peptide hormones such as neurokinin A

Compound: CCC/C=C\c1ccccc1/C=C/C(=O)N[C@@H]1C(=O)N(C)/C(=C/c2ccc(O)cc2)C(=O)N[C@@H](CC(C)C)C(=O)N[C@H](Cc2ccccc2)C(=O)N[C@@H]([C@H](C)O)C(=O)N[C@@H](CC(N)=O)C(=O)N[C@@H](CO)C(=O)O[C@@H]1C [WS-9326A] ({Cinnamoyl(2-(1Z-pentenyl))}-T[X1]L[dF][aThr]NS; ester 1-C)
- antagonist activity at NK-1: potent antagonist
